Tests used:
iNOS [1] = test: Western blot of iNOS in LPS-induced RAW 264.7 cells; assay type: cell-based; conditions: 24 h
Method: (§1) Whole-cell lysates were prepared using radioimmunoprecipitation (RIPA) assay. Proteins in lysate samples (30 μg) were analyzed using 10% sodium dodecylsulfate-polyacrylamide gel electrophoresis (SDS-PAGE). Gels were transferred to nitrocellulose membranes and probed with primary iNOS (clone N-20), COX-2 (clone C-20), p-ERK (clone N-20), p-JNK (clone N-20), and glyceraldehyde-3-phosphate dehydrogenase (GAPDH; clone 6C5) antibodies (Santa Cruz Biotechnology, Santa Cruz, CA, USA). Membranes were visualized with a BCIP/NBT kit (Gibco BRL, Grand Island, NY, USA). Protein expression was quantified using the Azure Biosystem C300 Imaging System. GAPDH expression was used as an internal control to compare with protein expressions of iNOS, COX-2, p-ERK, and p-JNK [24].

COX-2 [2] = test: Western blot of COX-2 in HKC-treated RAW 264.7 cells; assay type: cell-based
Method: as §1
(§2) C. acnes (4 × 10^8 cfu/mL) was heated at 80 °C for 30 min and killed. Heat-killed C. acnes (HKC) was freeze-dried as a powder and maintained at 4 °C until use. RAW 264.7 and HaCaT cells were cultured in DMEM with 10% FBS, 1% penicillin-streptomycin, and 1% L-glutamine at 37 °C in a 5% CO2 atmosphere. RAW 264.7 cells (4 × 10^5 cells/mL) and HaCaT cells (10^5 cells/mL) were seeded in six-well plates and co-treated with HKC (300 μg/mL) and test samples [24]. After 24 h, NO production was determined by adding the Griess reagent in the cell culture medium, and the absorption was measured in an ELISA reader at 530 nm. The sample culture medium was removed, and RAW 264.7 cells and HaCaT cells were washed with PBS.

iNOS [3] = test: Western blot of iNOS in HKC-treated RAW 264.7 cells; assay type: cell-based
Method: as §1, §2

[4] = tested on: Dihydrotestosterone-induced HaCaT cells; test: Anti-proliferative activity in dihydrotestosterone-treated HaCaT cells (MTT); assay type: cell-based, human
Method: (§3) HaCaT cells (10^5 cells/mL) were seeded in 96-well plates and co-treated with testosterone (5 μg/mL) or DHT (5 μg/mL) and test samples with no cytotoxicity for 48 h. Cell proliferative activity was detected by an MTT assay.

p-ERK [5] = test: Western blot of p-ERK in LPS-induced RAW 264.7 cells; assay type: cell-based; conditions: 30 min, SC-2 2.5–20 μM, SC-7 5–40 μM, SC-9 2.5–20 μM
Method: as §1

[6] = tested on: HKC-induced RAW 264.7 cells (NO production); test: NO production (Griess) in heat-killed C. acnes (HKC)-induced RAW 264.7 cells; assay type: cell-based; conditions: Mus musculus, RAW264.7, 24 h, read-out: IC50 Value of NO Inhibition
Method: as §2

p-JNK [7] = test: Western blot of p-JNK in LPS-induced RAW 264.7 cells; assay type: cell-based; conditions: 30 min, SC-2 2.5–20 μM, SC-7 5–40 μM, SC-9 2.5–20 μM
Method: as §1

[8] = tested on: LPS-induced RAW 264.7 cells (NO production); test: NO production (Griess) in LPS-induced RAW 264.7 cells; assay type: cell-based
Method: (§4) Anti-inflammatory effects were analyzed in RAW 264.7 cells, which were cultured in DMEM with 10% FBS, 1% L-glutamine, and 1% penicillin-streptomycin, and maintained at 37 °C in a 5% CO2 atmosphere. RAW 264.7 cells (4.0 × 10^5 cells/mL) were seeded in 96-well plates and co-treated with LPS (500 ng/mL) and test samples. After 24 h, NO production was determined by Griess reagent, and the absorption was detected at 530 nm. The percentage inhibition of NO production was presented as the anti-inflammatory activity. PGE2 concentrations in cell culture media were determined with a PGE2 enzyme-linked immunosorbent assay (ELISA) kit (Enzo Life Sciences, Farmingdale, NY, USA). The survival rate of RAW 264.7 cells was detected using an MTT assay.

p-ERK [9] = test: Western blot of p-ERK in HKC-treated HaCaT cells; assay type: cell-based, human; conditions: 30 min after HKC induction
Method: as §1, §2

p-JNK [10] = test: Western blot of p-JNK in HKC-treated RAW 264.7 cells; assay type: cell-based; conditions: SC-2 2.5–20 μM, SC-7 5–40 μM, SC-9 2.5–20 μM
Method: as §1, §2

[11] = tested on: Testosterone-induced HaCaT cells; test: Anti-proliferative activity in testosterone-treated HaCaT cells (MTT); assay type: cell-based, human
Method: as §3

COX-2 [12] = test: Western blot of COX-2 in LPS-induced RAW 264.7 cells; assay type: cell-based; conditions: 6 h and 24 h
Method: as §1

[13] = tested on: LPS-induced RAW 264.7 cells (PGE2 production); test: PGE2 production (ELISA) in LPS-induced RAW 264.7 cells; assay type: cell-based
Method: as §4

p-ERK [14] = test: Western blot of p-ERK in HKC-treated RAW 264.7 cells; assay type: cell-based; conditions: SC-2 2.5–20 μM, SC-7 5–40 μM, SC-9 2.5–20 μM
Method: as §1, §2

[15] = Survival rate of RAW 264.7 cells by MTT assay; assay type: cell-based; conditions: mouse, LPS-induced RAW 264.7 cells, read-out: Cell Viability (%)
Method: as §4

HaCaT cells [16] = test: Cytotoxicity analysis in HaCaT cells; assay type: cell-based, human
iNOS [17] = tested on: iNOS; parameters: method as in PMID 23774887; conditions: LPS-stimulated RAW264.7 macrophage cells; cited from earlier work
HaCaT cells [18] = conditions: 20 nM, 48 h
Method: HaCaT cells (10^5 cells/mL) were seeded in 96-well plates and co-treated with testosterone (5 μg/mL) or DHT (5 μg/mL) and test samples with no cytotoxicity for 48 h [2, 25, 26]. Cell proliferative activity was detected by an MTT assay.

COX-2 [19] = tested on: COX-2; parameters: method as in PMID 23774887; conditions: LPS-stimulated RAW264.7 macrophage cells; cited from earlier work

In the case of C=C1C(=O)O[C@@H]2C[C@H]1CC[C@]1(C)O[C@H]1CC/C(C)=C/CC[C@]2(C)O [SC-9, sinularin], the iNOS protein expression (iNOS [1]) is reported as “decreased iNOS protein expression”, the COX-2 expression (COX-2 [2]) is reported as “no changes” and the iNOS expression (iNOS [3]) is reported as “significant inhibitory effects”. For the same molecule, the “keratinocyte over-proliferation by DHT” value ([4]; HaCaT keratinocytes) was “inhibited keratinocyte over-proliferation”, the inhibition at 0.08 µM ([4]; Homo sapiens, dihydrotestosterone-induced HaCaT cells, 0.08 μM) was 8.5 ± 0.7% and the inhibition at 0.16 µM ([4]; Homo sapiens, dihydrotestosterone-induced HaCaT cells, 0.16 μM) was 16 ± 0.7%. The inhibition at 0.32 µM ([4]; Homo sapiens, dihydrotestosterone-induced HaCaT cells, 0.32 μM) was 18 ± 3.1%, the p-ERK protein expression (p-ERK [5]) was “dose-dependent inhibitory effects” and the IC50 [6] was 2.81 ± 0.2 µM. For the same molecule, the p-JNK protein expression (p-JNK [7]) was “dose-dependent inhibitory effects”, the inhibition at 20 µM ([8]; Mus musculus, RAW264.7, 24 h) was 102 ± 1.4% and the IC50 ([8]; Mus musculus, RAW264.7, 24 h, read-out: IC50 Value of NO Inhibition) was 3.85 ± 0.25 µM. For the same molecule, the p-ERK protein expression (p-ERK [9]) was “significant inhibitory effects”, the p-JNK expression (p-JNK [10]) was “good inhibitory effects” and the inhibition at 0.08 µM ([11]; Homo sapiens, testosterone-induced HaCaT cells, 0.08 μM) was 6.5 ± 0.5%. For the same molecule, the inhibition at 0.16 µM ([11]; Homo sapiens, testosterone-induced HaCaT cells, 0.16 μM) was 11.5 ± 1.3%, the inhibition at 0.32 µM ([11]; Homo sapiens, testosterone-induced HaCaT cells, 0.32 μM) was 19.1 ± 1.3% and the “testosterone-induced HaCaT cell proliferation” value ([11]; SC-2 1.25–5, SC-7 2.5–10, SC-9 0.08–0.32 μM, 48 h) was “significantly decreased”. For the same molecule, the COX-2 protein expression (COX-2 [12]) was “more significant COX-2 inhibitory effects at 6 h than that at 24 h”, the “inhibitory effect on prostaglandin E2 (PGE2) production” value ([13]; 24 h) was “no inhibitory effect” and the IC50 ([13]; Mus musculus, RAW264.7, 6 h, read-out: IC50 Value of PGE2 Inhibition) was 6.22 µM. The p-ERK expression (p-ERK [14]) was “good inhibitory effects”, the viability at 24 h, 20 µM [15] was 98.9% and the “concentrations with no cytotoxicity to HaCaT cells” value (HaCaT cells [16]; HaCaT cells) was 312 to 2500 nM. For the same molecule, the “growth inhibition of HaCaT cells” value (HaCaT cells [16]; at high doses) was “caused growth inhibition”.
With C/C1=C\CC[C@](C)(O)[C@H]2C[C@@H](CC[C@]3(C)O[C@H]3CC1)[C@H](C)C(=O)O2 [SC-10, dihydrosinularin] the “inhibitory effects on NO expression” value [8] was “no inhibitory effects”, the inhibition at 20 µM ([8]; Mus musculus, RAW264.7, 24 h) was 28.2 ± 4.6% and the viability at 24 h, 20 µM [15] was 117 ± 1.9%.
In the case of C=C1C(=O)O[C@]2(C)CC[C@@H]1C[C@@H]1O[C@@]1(C)C/C=C/[C@@](C)(OO)CCC2=O [flexilarin D], the “accumulation of the proinflammatory iNOS protein” value (iNOS [17]) is given as “significantly inhibit”.
With C[C@]12CC[C@H]3[C@@H](CCC4=CC(=O)CC[C@@]43C)[C@@H]1CC[C@@H]2O [testosterone] the HaCaT cell proliferation (HaCaT cells [18]) was “significantly induced”.
For flexibilisolides C, the “accumulation of COX-2 protein” value (COX-2 [19]) is listed as “could reduce” and the “accumulation of the proinflammatory iNOS protein” value (iNOS [17]) is listed as “significantly inhibit”.
In the case of flexibilisolides D, the “accumulation of the proinflammatory iNOS protein” value (iNOS [17]) is listed as “significantly inhibit”.

Reference: article PMC7601839, “Anti-Acne Effects of Cembrene Diterpenoids from the Cultured Soft Coral Sinularia flexibilis” (Marine Drugs, 2020)
